Test [1] is described as follows: Macaque experiment (high-fat diet). The class given is in vivo. Conditions: rhesus monkeys, high-fat diet (45 kcal % fat), intragastric 0.5 mg-1 mg/Kg once/day, after 6 weeks. The protocol:
Rhesus monkeys were used in the macaque experiment. 9 in total, […] at the beginning of the experiment, and each weighed 2.5±0.5 Kg. They were raised individually in the same environment, in a room with suitable temperature and humidity control, and the light/dark cycle was 12 hours, free diet and drinking water, and fed with standard laboratory feed (#2150230401). After 7 days of adaptation, they were randomly assigned to 3 groups with 3 animals in each group, and each group was subjected to different feeding treatments, specifically as follows (see figure e of FIG. 7):
NC group (i.e. normal diet group): fed with standard laboratory feed (#2150230401), free diet and drinking water for 6 weeks.
HFD group (i.e. high-fat diet group): fed with high-fat diet (45 kcal % fat), free diet and drinking water for 6 weeks.
D3 group (i.e. high-fat diet+D3 medicine intragastric administration group): fed with high-fat diet (45 kcal % fat), free diet and drinking water for 6 weeks. HD medicines were selected as D3, intragastrically administrated with D3, 0.5 mg-1 mg/Kg body weight, and intragastrically administrated according to 1.7 ml/Kg body weight, once/day.
Food intake (unit: g/only/week) and body weight were monitored weekly. Fresh excreta of the above animals were collected and stored at −80° C. for further analysis of macaque fecal flora (method as above).

The test system of test [2] is Guca2b. The experiment in a line: qPCR of Guca2b mRNA in the ileum of rats. The format is in vivo. The protocol:
qPCR gene expression was carried out using the StepOnePlus real-time fluorescent quantitative PCR system. Three technical replicates were performed for each sample, and the identity and purity of the amplified product were checked by analyzing the melting curve at the end of the amplification. Gene expression results were referenced to the percent expression of each gene normalized to glyceraldehyde-3-phosphate dehydrogenase (GAPDH).
(In general: Quantitative PCR measures a nucleic acid by following its amplification.)

A short description of test [3]: GF mice experiment (high-fat diet). The class given is in vivo, Germ-free (GF) C57B1/6 mice. The source says:
To further determine the relative contribution of the microbiota to the anti-obesity effects of HD, D3 was chosen for GF mice experiment.
Germ-free (GF) C57B1/6 mice were used in the GF mice experiment, kept in a germ-free isolator, and their GF status was verified by fecal PCR every month. At the beginning of the experiment, germ-free (GF) C57B1/6 mice were 4 weeks old, each weighed 14±1 g. They were raised in a room with suitable temperature and humidity control, and the light/dark cycle was 12 hours, free diet and drinking water, and fed with standard laboratory feed (growth and reproduction feed, SPFSLFZ003, product of SPF (Beijing) Experimental Animal Technology Co., Ltd.), after one week of adaptation, they were randomly assigned to each cage, 4-6 mice per cage. A total of 3 treatments were set up, each with 1 cage, and each treatment was subjected to different feeding treatments, specifically as follows:
NC group (i.e. normal diet group): fed with standard laboratory feed (also known as growth and reproduction feed, SPFSLFZ003), free diet and drinking water for 8 weeks.
HFD group (i.e. high-fat diet group): fed with high-fat diet, the high-fat diet used was rodent feed (containing 60 kcal % fat, D12492), free diet and drinking water for 8 weeks.
D3 group (i.e. high-fat diet+D3 medicine intragastric administration group): fed with high-fat diet, free diet and drinking water. Intragastrically administrated with D3 medicine, 0.75 mg-3 mg/Kg body weight, 0.2 ml, once/day for 8 weeks.
Food intake and body weight were monitored weekly.
After the experiment on GF mice, the mice were killed by cervical dislocation. The heart, liver, spleen, lung, kidney, blood, ileum, cecum, and colon were harvested, immediately placed in liquid nitrogen, and stored at −80° C. for further analysis. Precisely dissected and subcutaneous and visceral fat deposits were weighed.

In the case of RTRYCRTGR [D3], the “growth rate of body weight” value in test [1] is recorded as “decreased significantly”. Moreover, the “mRNA level of UGN in the ileum” value in test [2] is “increased significantly”. Also, the “subcutaneous and visceral fat weight (inguinal subcutaneous, epididymis, perinephric) vs HFD group” value in test [3] (8 weeks) is “significantly lower than that of the HFD group”. Besides, in test [3] (after 3-4 weeks), the “weekly feed intake vs control HFD group” value is given as “significant gap”. Besides, in test [3] (intragastric 0.75 mg-3 mg/Kg once/day, 8 weeks), the “body weight compared with the HFD group” value is “decreased significantly”.

These data come from patent publication US20240376148A1, “MEDICAMENT FOR INHIBITING DIETARY OBESITY AND POLYPEPTIDE USED THEREFOR” (INSTITUTE OF ZOOLOGY, CHINESE ACADEMY OF SCIENCES, priority 2022, published 2024).
